Results as given in patent publication EP1247803A2, “Indolinone compounds suitable for modulation of protein kinases” (Sugen, Inc., priority 1996, dated 1998).

Target: T1, FLK-1 receptor (Mus musculus, UniProt P35918)
T1 construct: expressed in transfected cells; host or cells: NIH3T3 C7#3
Test: FLK-1 ELISA (kinase activity of the FLK-1 receptor in FLK-1/NIH3T3 cells, VEGF stimulated)
Format: cell-based
In short: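 An ELISA using affinity-purified rabbit anti-FLK-1 antiserum on anti-rabbit IgG-coated plates measured VEGF-stimulated FLK-1 kinase activity. NIH3T3 C7#3 cells carrying FLK-1 were serum-starved (0.1% FBS) overnight, then exposed to compound (final 1:200 dilution, 0.5% DMSO) for two hours at 37 °C.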

T1 sequence (P35918 20-1345): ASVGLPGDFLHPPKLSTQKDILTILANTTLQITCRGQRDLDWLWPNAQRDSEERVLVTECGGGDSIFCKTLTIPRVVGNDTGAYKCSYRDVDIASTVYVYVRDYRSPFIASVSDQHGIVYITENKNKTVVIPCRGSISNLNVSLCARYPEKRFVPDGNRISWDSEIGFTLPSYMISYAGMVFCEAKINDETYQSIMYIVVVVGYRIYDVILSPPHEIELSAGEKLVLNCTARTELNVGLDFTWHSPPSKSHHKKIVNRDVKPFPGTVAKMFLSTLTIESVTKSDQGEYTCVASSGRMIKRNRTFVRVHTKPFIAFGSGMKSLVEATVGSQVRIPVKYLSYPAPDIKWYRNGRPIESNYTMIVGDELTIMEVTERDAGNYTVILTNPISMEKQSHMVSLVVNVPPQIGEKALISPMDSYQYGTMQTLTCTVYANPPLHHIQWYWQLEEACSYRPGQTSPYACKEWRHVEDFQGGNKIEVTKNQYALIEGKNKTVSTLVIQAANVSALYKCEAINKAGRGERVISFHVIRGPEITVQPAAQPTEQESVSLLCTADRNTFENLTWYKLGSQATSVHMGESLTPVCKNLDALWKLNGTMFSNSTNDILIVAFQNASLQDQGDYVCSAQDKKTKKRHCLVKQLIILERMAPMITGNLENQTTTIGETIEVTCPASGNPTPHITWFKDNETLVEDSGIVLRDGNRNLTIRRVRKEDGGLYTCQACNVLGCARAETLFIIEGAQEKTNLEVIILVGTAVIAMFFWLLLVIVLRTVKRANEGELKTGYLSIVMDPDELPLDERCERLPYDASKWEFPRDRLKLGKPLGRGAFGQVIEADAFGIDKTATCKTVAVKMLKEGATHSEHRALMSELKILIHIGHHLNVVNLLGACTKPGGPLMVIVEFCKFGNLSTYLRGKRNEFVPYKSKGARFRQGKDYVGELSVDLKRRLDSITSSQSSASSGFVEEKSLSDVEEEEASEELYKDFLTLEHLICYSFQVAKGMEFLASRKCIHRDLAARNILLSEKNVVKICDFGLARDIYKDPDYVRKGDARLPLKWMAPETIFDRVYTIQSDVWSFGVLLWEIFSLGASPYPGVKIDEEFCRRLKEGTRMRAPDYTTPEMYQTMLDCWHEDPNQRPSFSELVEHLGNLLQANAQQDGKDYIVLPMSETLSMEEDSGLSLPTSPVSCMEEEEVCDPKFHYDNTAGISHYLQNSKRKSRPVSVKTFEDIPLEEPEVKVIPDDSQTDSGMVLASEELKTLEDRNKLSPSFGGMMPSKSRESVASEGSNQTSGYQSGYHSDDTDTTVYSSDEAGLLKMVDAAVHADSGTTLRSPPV

## Cc1c(Br)ccc2c1C(=Cc1cc(O)c3c(c1O)CCCC3)C(=O)N2 [10726/C07]
  Fik Kinase %Inhibition: -17.0%
